Results: ChEMBL document CHEMBL5126528, “Recent strategies targeting Embryonic Ectoderm Development (EED) for cancer therapy: Allosteric inhibitors, PPI inhibitors, and PROTACs” (Eur J Med Chem, 2022)
Values after ≈ are worked out from the molar mass of the structure shown. Counter-ions that a name gives are not always drawn. Blank lines part the entries; values can stand above or below the compound they belong to.

How the values were obtained:
[1] = Solubility of the compound at pH 7.4; format: physicochemical; details: buffer
[2] = Inhibition of PRC2 (unknown origin); parameters: species or system Homo sapiens
[3] = Binding affinity to EZH2-EED (unknown origin) protein interaction assessed as inhibition constant by FP binding assay; parameters: species or system Homo sapiens
[4] = Inhibition of EZH2-EED (unknown origin) protein interaction by FP binding assay; parameters: species or system Homo sapiens
Polycomb protein EED [5] = molecular target: T1, Polycomb protein EED (Homo sapiens, UniProt O75530); assay: Binding affinity to EED (unknown origin) assessed as dissociation constant by SPR analysis
LNCaP C4-2B [6] = assay: Antiproliferative activity against human LNCaP C4-2B cells expressing TaxR
[7] = Antiproliferative activity against human ARCaPE cells expressing sh Ctrl; details: ARCaP
LNCaP C4-2B [8] = assay: Antiproliferative activity against human LNCaP C4-2B cells
[9] = Antiproliferative activity against human ARCaP cells expressing sh RNA EPLIN
LNCaP C4-2 = assay: Antiproliferative activity against human LNCaP C4-2 cells
Pfeiffer = assay: Antiproliferative activity against human Pfeiffer cells treated for 14 days; format: functional, cell-based; details: 336 h
Polycomb protein EED [10] = molecular target: T1, Polycomb protein EED; assay: Inhibition of EED (unknown origin)
KARPAS-422 = assay: Antiproliferative activity against human KARPAS-422 cells treated for 11 days; format: functional, cell-based; details: KARPAS-422, 264 h
Lymphoma cell line [11] = assay: Inhibition of cell growth in human Lymphoma cell line bearing EZH2 […] mutant; format: functional, cell-based
Lymphoma cell line [12] = assay: Inhibition of cell growth in human Lymphoma cell line bearing wildtype EZH2; format: functional, cell-based
BC [13] = assay: Inhibition of cell growth in human multiple BC cells bearing EZH2 […] mutant; format: functional, cell-based
BC [14] = assay: Inhibition of cell growth in human multiple BC cells bearing wildtype EZH2; format: functional, cell-based
[15] = Inhibition of FITC-labeled EZH2 (39 to 63 residues) (unknown origin)/N-terminal 6x His-tagged human EED protein interaction by incubated for 2 hrs FP-based competitive assay
Homo sapiens = species on record: Homo sapiens; assay: Inhibition of GST-tagged EZH2/FLAG-tagged EED (unknown origin) protein protein interaction at 100 uM incubated for 1 hr by AlphaLISA method relative to control
Polycomb protein EED [16] = molecular target: T1, Polycomb protein EED; assay: Inhibition of human EED (76 to 441 residues) expressed in Escherichia coli strain BL21(DE3) by alpha screen assay
Polycomb protein EED [17] = molecular target: T1, Polycomb protein EED; assay: Binding affinity to EED (unknown origin) assessed as dissociation constant
[18] = Inhibition of PRC2 HMTase activity in human G-401 cells using nucleosome core particles as substrate in presence of activation peptide H3K27me3 (21 to 44 residues)
[19] = Oral bioavailability in CD-1 mouse; format: ADME, organism-based; details: in vivo

T1 sequence (O75530 whole entry): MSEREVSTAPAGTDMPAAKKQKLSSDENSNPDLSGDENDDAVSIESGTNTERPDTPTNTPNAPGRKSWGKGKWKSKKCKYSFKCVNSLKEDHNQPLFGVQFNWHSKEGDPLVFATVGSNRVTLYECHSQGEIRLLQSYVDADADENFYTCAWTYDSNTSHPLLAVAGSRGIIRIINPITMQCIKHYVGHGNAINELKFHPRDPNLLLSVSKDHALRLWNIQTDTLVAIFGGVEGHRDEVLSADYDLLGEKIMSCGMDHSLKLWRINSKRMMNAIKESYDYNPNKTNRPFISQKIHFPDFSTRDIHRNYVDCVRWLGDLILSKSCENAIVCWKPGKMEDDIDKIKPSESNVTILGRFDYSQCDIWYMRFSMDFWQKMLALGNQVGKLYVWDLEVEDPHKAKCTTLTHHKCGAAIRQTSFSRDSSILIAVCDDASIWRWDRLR

SMILES: CCCCC1C(=O)N(c2ccccc2)N(c2ccc(O)cc2)C1=O (centres undefined) [OXYPHENBUTAZONE ANHYDROUS]
Ki [3]: 44500 nM
IC50 [4]: 229000 nM

SMILES: CCOP(=O)(OCC)C(NC(=O)[C@H](Cc1ccc(-c2ccccc2)cc1)NC(=O)/C=C/c1ccc(-c2ccccc2)cc1)P(=O)(OCC)OCC
IC50 (LNCaP C4-2B [6]): 6870 nM
IC50 [7]: 64900 nM
IC50 (LNCaP C4-2B [8]): 91100 nM
IC50 [9]: 260 nM
IC50 (LNCaP C4-2): 56100 nM

SMILES: CCS(=O)(=O)N1CC=C(c2cnc(NCC3Cc4cc(F)ccc4O3)n3cnnc23)CC1 (centres undefined)
IC50 (Pfeiffer): 0.8 nM
IC50 (Polycomb protein EED [10]): < 20 nM
IC50 (KARPAS-422): 4 nM

SMILES: C=CC(=O)Nc1cc(Nc2nccc(-c3cn(C)c4ccccc34)n2)c(OC)cc1N(C)CCN(C)C [OSIMERTINIB]
IC50 (Lymphoma cell line [11]): 15 nM
IC50 (Lymphoma cell line [12]): 15 nM
IC50 (BC [13]): 15 nM
IC50 (BC [14]): 15 nM

SMILES: Cc1ccc(C(C2=C(O)CC(C)(C)CC2=O)C2C(=O)CC(C)(C)CC2=O)s1 (centres undefined)
IC50 [15]: 63800 nM

SMILES: CN1CC=C(c2cnc(NCC3Cc4cc(F)ccc4O3)n3cnnc23)CC1 (centres undefined)
IC50 (Pfeiffer): 2 nM
IC50 (Polycomb protein EED [10]): < 20 nM
IC50 (KARPAS-422): 2.8 nM

SMILES: CN1CCc2cccc3c2[C@H]1Cc1ccc(O)c(O)c1-3 [APOMORPHINE HYDROCHLORIDE]
Ki [3]: 2900 nM
IC50 [4]: 15500 nM

SMILES: CC(=O)N1CC=C(c2cnc(NCC3Cc4cc(F)ccc4O3)n3cnnc23)CC1 (centres undefined)
IC50 (Pfeiffer): 0.7 nM
IC50 (Polycomb protein EED [10]): < 20 nM
IC50 (KARPAS-422): 7 nM

SMILES: COc1ccc(CCN2CCC(Nc3nc4ccccc4n3Cc3ccc(F)cc3)CC2)cc1 [ASTEMIZOLE]
IC50 [15]: 93800 nM

Further lines, results first:

solubility [1]: 5 µM (≈ 1.96 µg/mL)
IC50 [2]: 15 nM
SMILES: Cc1ncccc1-c1cnc(NCc2c(F)cc(O)c3c2CCO3)n2cnnc12

solubility [1]: 0.2 µM (≈ 0.0822 µg/mL)
Kd (Polycomb protein EED [5]): 2.4 nM
IC50 [2]: 16 nM
SMILES: Cc1ncccc1-c1cnc(NCc2c(F)cc(Cl)c3c2CCO3)n2cnnc12

solubility [1]: 3 µM (≈ 1.2 µg/mL)
Kd (Polycomb protein EED [5]): 15 nM
IC50 [2]: 102 nM
SMILES: Cc1ncccc1-c1cnc(NCc2c(F)cc(C#N)c3c2CCO3)n2cnnc12

inhibition (Homo sapiens): 49%
SMILES: O=C(CC1S/C(=N\c2ccccc2F)N(Cc2ccc3c(c2)OCO3)C1=O)Nc1ccc(C(=O)O)cc1 (centres undefined)

IC50 (Polycomb protein EED [16]): 5600 nM
Kd (Polycomb protein EED [17]): 3700 nM
SMILES: Cc1ncccc1-c1sc(NCc2c(F)ccc3c2CCO3)nc1C

IC50 (Polycomb protein EED [10]): < 100 nM
SMILES: Cc1ncccc1-c1cnc(NCC2Cc3cc(F)ccc3O2)n2cc(C#N)nc12 (centres undefined)

IC50 [18]: 220 nM
IC50 (Polycomb protein EED [10]): 20 nM
F [19]: 10%
SMILES: CS(=O)(=O)c1ccc(-c2cnc(NCc3ccco3)n3cnnc23)cc1

IC50 (Polycomb protein EED [10]): < 100 nM
SMILES: Cc1ncccc1-c1cnc(NCC2Cc3cc(F)ccc3O2)c2cncnc12 (centres undefined)

IC50 (Polycomb protein EED [16]): 2100 nM
Kd (Polycomb protein EED [17]): 5200 nM
SMILES: Cc1nc(NCc2cccc3c2OCO3)sc1-c1ccn(C)n1

Kd (Polycomb protein EED [5]): 0.5 nM
IC50 [2]: 50 nM
SMILES: Cc1ncccc1-c1cnc(NCc2c(F)cc(N)c3c2CCO3)n2cnnc12
